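In this assay, cells in 96-well plates receive the compound at five concentrations for 48 hours. Endpoints are linearly interpolated between the surrounding concentrations. GI50 = concentration required for 50% inhibition of growth. TGI: total growth inhibition.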
What was measured:
Experiment in all cases: NCI anticancer screen, dose series, 48 h
[1] = tested on: HT29 colon
[2] = tested on: SK-OV-3 ovarian
[3] = tested on: PC-3 prostate
[4] = tested on: HCC-2998 colon
[5] = tested on: MALME-3M melanoma
[6] = tested on: HCT-116 colon
[7] = tested on: OVCAR-8 ovarian
[8] = tested on: BT-549 breast

Structure (SMILES) | GI50 [1] [µM] | TGI [1] [µM] | GI50 [2] [µM] | TGI [2] [µM] | GI50 [3] [µM] | TGI [3] [µM] | GI50 [4] [µM] | TGI [4] [µM] | GI50 [5] [µM] | TGI [5] [µM] | GI50 [6] [µM] | TGI [6] [µM] | GI50 [7] [µM] | TGI [7] [µM] | GI50 [8] [µM] | TGI [8] [µM]
CCc1ccc(Oc2c(-c3ccc(OCCc4cccc(C(F)(F)F)c4)cc3O)n[nH]c2C(F)(F)F)cc1 | 8.13 | 14.9 | 6.57 | 12.9 | 3.7 | 10.5 | 8.54 | 16 | 5.42 | 11.8 | 1.53 | 5.47 | 5.25 | 11.6 | 6.17 | 12.5
CC[C@]12C=CCN3CC[C@@]4(c5ccc(OC)cc5N(C)[C@H]4[C@@](O)(C(=O)OC)[C@@H]1OC(=O)CCC(=O)O[C@H]1CC[C@H]4[C@@H]5CCC6=CC(=O)CC[C@@H]6[C@H]5CC[C@]14C)[C@@H]32 | 1.6 | 11.4 | 2.04 | > 50 | 0.996 | > 50 | 1.98 | > 50 | 1.64 | 21.1 | 1.55 | > 50 | 2.24 | > 50 | 1.62 | 9.38
O=S(=O)(NCCNc1nccc(-c2c(-c3ccc(F)cc3)nc3sccn23)n1)c1ccc(O)cc1 | 2.09 | 37.4 | 9.17 | 73 | 4.51 | 37.6 | 15.5 | 51.1 | 3.92 | 21.5 | 1.43 | 22.1 | 1.98 | 22.5 | 3.14 | 19.1
Cc1ccc(NC(=S)NNC(=S)Nc2ccc(C)cc2)cc1 | 3.61 | > 100 | 17.3 | > 100 | 10.2 | > 100 | 15.5 | > 100 | 7.07 | > 100 | 3.81 | > 100 | 7.95 | > 100 | > 100 | > 100
COc1cc(/C=C2\CCC/C(=C\c3cc(CN4CCCC4)c(O)c(OC)c3)C2=O)cc(CN2CCCC2)c1O | 0.322 | 1.78 | 4.58 | 16.5 | 3.88 | 16.6 | 2.55 | 6.38 | 2.73 | 6.41 | 1.66 | 3.36 | 3.27 | > 100 | 4.79 | 17.8
NC(=O)c1c[nH]c2ncnc(N)c12 | 26.6 | > 100 | 25.9 | 83 | 30.3 | > 100 | 73 | > 100 | 21.3 | 71.1 | 45.5 | > 100 | 90.2 | > 100 | 21.6 | > 100
O=C(/C=C(/C=C/c1cccc2[nH]ccc12)OB(F)F)/C=C/c1cccc2[nH]ccc12 | 0.516 | 3.92 | 2.19 | 5.77 | 0.815 | 3.41 | 1.91 | 3.63 | 1.01 | 8.56 | 0.277 | 0.951 | 0.347 | > 100 | 1.03 | 4.09

From PubChem BioAssay (NCI)
